Several values for one entry are separate records, joined by “and”; a condition that tells them apart may be missing. Identical values can stand only once. Results filed as inconclusive are left out.
Test system: BDF1 mice, colon carcinoma 38 sc, T/C %
Assay: NCI In Vivo Anticancer Drug Screen. Data for tumor model Colon Carcinoma 38 (subcutaneous) in B6D2F1 (BDF1) mice
Conditions: endpoint: median tumor weight (est.), higher = larger tumour
How it was run: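 Transplantable tumor in mice; compound-treated vs vehicle-dosed controls. Measured survival or tumor size; value = T ÷ C.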

CCN1/C(=C/C=C/C=C\C=C\c2sc3ccc4ccccc4c3[n+]2CC)Sc2ccc3ccccc3c21
T/C (dose: 2.5 mg/kg/injection, schedule: Q07DX002 (ip), vehicle: saline with Tween-80): 105 % of control
T/C (dose: 5.0 mg/kg/injection, schedule: Q07DX002 (ip), vehicle: saline with Tween-80): 89 % of control
T/C (dose: 10.0 mg/kg/injection, schedule: Q07DX002 (ip), vehicle: saline with Tween-80): 69 % of control
T/C (dose: 20.0 mg/kg/injection, schedule: Q07DX002 (ip), vehicle: saline with Tween-80): 76 % of control

CC(=O)Oc1ccccc1O
T/C (dose: 50.0 mg/kg/injection, schedule: Q07DX002 (ip), vehicle: saline + Tween-80 + alcohol): 158 % of control

CCC[CH2][Sn]1([CH2]CCC)[O]C2C(CO)OC(n3ccc(N)nc3=O)C2[O]1 (stereo unspecified)
T/C (dose: 1.56 mg/kg/injection, schedule: Q07DX002 (ip), vehicle: Klucel (hydroxypropylcellulose) (HPC)): 61 % of control and 72 % of control
T/C (dose: 25.0 mg/kg/injection, schedule: Q07DX002 (ip), vehicle: Klucel (hydroxypropylcellulose) (HPC)): 91 % of control

CCC1(O)CC2CN(CCc3c([nH]c4ccccc34)C(C(=O)OC)(c3cc4c(cc3OC)N(C)C3C(O)(C(N)=O)C(O)C5(CC)C=CCN6CCC43C65)C2)C1 (stereo unspecified) (tested in a mixture with another compound)
T/C (dose: 0.12 mg/kg/injection, schedule: Q07DX002 (ip), vehicle: water): 87 % of control
T/C (dose: 0.5 mg/kg/injection, schedule: Q07DX002 (ip), vehicle: water): 119 % of control and 94 % of control
T/C (dose: 2.0 mg/kg/injection, schedule: Q07DX002 (ip), vehicle: water): 36 % of control and 48 % of control
T/C (dose: 4.0 mg/kg/injection, schedule: Q07DX002 (ip), vehicle: water): 5 % of control and 15 % of control

CC(=O)OCC1(C)NC(=O)c2ccccc2O1 (stereo unspecified)
T/C (dose: 56.2 mg/kg/injection, schedule: Q07DX002 (ip), vehicle: saline with Tween-80): 54 % of control
T/C (dose: 100.0 mg/kg/injection, schedule: Q07DX002 (ip), vehicle: saline with Tween-80): 98 % of control
T/C (dose: 112.5 mg/kg/injection, schedule: Q07DX002 (ip), vehicle: saline with Tween-80): 62 % of control
T/C (dose: 200.0 mg/kg/injection, schedule: Q07DX002 (ip), vehicle: saline with Tween-80): 109 % of control
T/C (dose: 225.0 mg/kg/injection, schedule: Q07DX002 (ip), vehicle: saline with Tween-80): 69 % of control
T/C (dose: 400.0 mg/kg/injection, schedule: Q07DX002 (ip), vehicle: saline with Tween-80): 153 % of control
T/C (dose: 450.0 mg/kg/injection, schedule: Q07DX002 (ip), vehicle: saline with Tween-80): 48 % of control
T/C (dose: 900.0 mg/kg/injection, schedule: Q07DX002 (ip), vehicle: saline with Tween-80): 48 % of control

Cc1ccccc1SSc1ccccc1C
T/C (dose: 25.0 mg/kg/injection, schedule: Q07DX003 (ip), vehicle: other): 92 % of control
T/C (dose: 25.0 mg/kg/injection, schedule: Q07DX003 (ip), vehicle: saline with Tween-80): 96 % of control
T/C (dose: 50.0 mg/kg/injection, schedule: Q07DX003 (ip), vehicle: other): 123 % of control
T/C (dose: 50.0 mg/kg/injection, schedule: Q07DX003 (ip), vehicle: saline with Tween-80): 88 % of control
T/C (dose: 100.0 mg/kg/injection, schedule: Q07DX003 (ip), vehicle: other): 89 % of control
T/C (dose: 100.0 mg/kg/injection, schedule: Q07DX003 (ip), vehicle: saline with Tween-80): 62 % of control
T/C (dose: 200.0 mg/kg/injection, schedule: Q07DX003 (ip), vehicle: other): 84 % of control
T/C (dose: 200.0 mg/kg/injection, schedule: Q07DX003 (ip), vehicle: saline with Tween-80): 74 % of control

CC[C@H]1CN2CCc3cc(OC)c(OC)cc3[C@@H]2C[C@@H]1C[C@H]1NCCc2cc(OC)c(OC)cc21
T/C (dose: 1.75 mg/kg/injection, schedule: Q07DX002 (ip), vehicle: saline): 57 % of control
T/C (dose: 3.5 mg/kg/injection, schedule: Q07DX002 (ip), vehicle: saline): 74 % of control
T/C (dose: 7.0 mg/kg/injection, schedule: Q07DX002 (ip), vehicle: saline): 84 % of control
T/C (dose: 14.0 mg/kg/injection, schedule: Q07DX002 (ip), vehicle: saline): 89 % of control
T/C (dose: 28.0 mg/kg/injection, schedule: Q07DX002 (ip), vehicle: saline): 74 % of control

CCC[CH2][Hg][Cl]
T/C (dose: 0.62 mg/kg/injection, schedule: Q07DX002 (ip), vehicle: Klucel (hydroxypropylcellulose) (HPC)): 99 % of control
T/C (dose: 2.5 mg/kg/injection, schedule: Q07DX002 (ip), vehicle: Klucel (hydroxypropylcellulose) (HPC)): 92 % of control
T/C (dose: 5.0 mg/kg/injection, schedule: Q07DX002 (ip), vehicle: Klucel (hydroxypropylcellulose) (HPC)): 105 % of control
T/C (dose: 20.0 mg/kg/injection, schedule: Q07DX002 (ip), vehicle: Klucel (hydroxypropylcellulose) (HPC)): 113 % of control

From PubChem BioAssay AID212 (DTP/NCI, 2004)
